Assay results: patent publication US20250183494A1, “Standardized Bioflavonoid Composition for Regulation of Homeostasis of Host Defense Mechanism” (priority 2021, published 2025)
Several values for one entry are separate records, joined by “and”; a condition that tells them apart may be missing. Equal values may be shown once.

Assays:
[1] = tested on: LPS-induced endotoxemia and sepsis; assay: LPS-induced sepsis model, survival (UP446 study); format: in vivo, CD-1 mice
Excerpt: This model used survival rate of animals as the end point measurement (Wang et al., 1999). Lipopolysaccharide (LPS) is an integral component of the outer membrane of gram-negative bacteria and a major contributing factor in the initiation of a generalized inflammatory process that may lead to endotoxin shock. It is a state mediated principally by macrophages/monocytes and is attributed to excessive production of several early phase cytokines such as TNF-α, IL-1, IL-6 and gamma interferon (IFN-γ) as well as a late-stage mediator, HMGB1. Following a median lethal dose of LPS (25 mg/kg) administration dissolved in phosphate-buffered saline (PBS; Lifeline, Lot #07641), animals develop endotoxemia and HMGB1 would be detected in the serum at 8 hours and reach to a peak and plateau levels from 16 to 32 hours after LPS. If untreated, mice would start to die within 24 hours. In the current study, we monitored the mice for 4 days after LPS injection. […] The following groups were included in the study:
In this model, mice were pretreated with bioflavonoid composition—UP446, illustrated in the Example 4, for a week (7 days) before lethal dose intraperitoneal injection of LPS (E. coli, 055:B5; Sigma, St. Louis, MO; Lot #081275) at 25 mg/kg with a 10 mL/kg PBS volume. Animals were observed hourly. Given the fact that sodium butyrate improved LPS-induced injury in mice through suppression of HMGB1 release, we chose this compound as a positive control for our study (Li et al., 2018).

LPS-induced sepsis = LPS-induced sepsis model, composition vs constituents, Colby synergy; format: in vivo, CD-1 mice
Protocol: On the 8th day, mice were injected intraperitoneally (i.p.) with 25 mg/kg LPS dissolved in PBS at 10 mL/kg. Mice in the UP894-II-treated group received a daily dose of UP894-II at 250 mg/kg. All mice continued to receive the treatment daily for the duration of study, which was completed on the 6th day post LPS injection. Following a median lethal dose of LPS (25 mg/kg) by i.p. administration, animals are expected to develop sepsis within a few hours. If untreated, mice would start to die within 24 hours. Animals were observed hourly. In the current study, we monitored the mice for 6 days after LPS injection.
For the blending of these plant extracts to have unexpected synergy, the observed inhibition needs to be greater than the calculated value.
The LPS-induced survival study was utilized to evaluate possible synergy or unexpected effects of extracts from Scutellaria and Acacia, when formulated together in a specific ratio, using Colby's method.

TNF-α = assay: LPS-induced acute lung injury, serum TNF-α ELISA; format: in vivo, Sprague Dawley rats; conditions: UP446 250 mg/kg, SB 500 mg/kg
Protocol: The presence of TNF-α in undiluted rat serum was measured using the rat TNF-α Quantikine ELISA kit from RandD Systems (product #: RTA00) as follows: undiluted serum was added to a microplate coated with TNF-α antibody. […] The washing was repeated, and enzyme substrate was added to the plate.

IL-1β = assay: LPS-induced acute lung injury, serum IL-1β ELISA; format: in vivo, Sprague Dawley rats; conditions: UP446 250 mg/kg, SB 500 mg/kg
Protocol: The presence of IL-1β in undiluted rat serum was measured using the Rat IL-1β Quantikine ELISA kit from RandD Systems (product #: RLB00) as follows: undiluted serum was added to a microplate coated with IL-1β antibody. […] The washing was repeated, and enzyme substrate was added to the plate.

[2] = tested on: LPS-induced acute lung injury; assay: LPS-induced acute lung injury, lung histopathology (H&E); format: in vivo, Sprague Dawley rats; conditions: UP446 high dose 250 mg/kg, Sodium Butyrate 500 mg/kg
Protocol: The severity of lung damage as a result of intratracheal LPS was assessed using HandE-stained lung tissue. The left lobe of the lung was used for the histopathology analysis.

[3] = cumulative, LPS 25 mg/kg i.p., UP446 250, Sodium Butyrate 500 mg/kg oral, N=8
[4] = SB 500, UP894-II 250, RM405 200, RM406 50 mg/kg
[5] = SB 500, UP894-II 250, RM405 200, RM406 50 mg/kg, listed as SB
[6] = per interval, SB 500, UP894-II 250, RM405 200, RM406 50 mg/kg oral, N=13

CCCC(=O)[O-].[Na+] [Sodium Butyrate]
Survival rate ([1]; 48 hours after LPS injection, UP446 250, SB 500 mg/kg): half of the animals were deceased | # of Death after LPS, 24 hr [1, 3]: 2 | # of Death after LPS, 32 hr [1, 3]: 3 | # of Death after LPS, 34 hr [1, 3]: 3 | # of Death after LPS, 48 hr [1, 3]: 4 | # of Death after LPS, 58 hr [1, 3]: 4 | # of Death after LPS, 72 hr [1, 3]: 4 | # of Death after LPS, 82 hr [1, 3]: 4 | Mortality rate, 0 hr (LPS-induced sepsis; [4]): 0.00% | Mortality rate, 24 hr post LPS (LPS-induced sepsis; [4]): 15.38% | Mortality rate, 36 hr post LPS (LPS-induced sepsis; [4]): 46.15% | Mortality rate, 48 hr post LPS (LPS-induced sepsis; [4]): 53.85% | Mortality rate, 60 hr post LPS (LPS-induced sepsis; [4]): 61.54% | Mortality rate, 72 hr post LPS (LPS-induced sepsis; [4]): 61.54% | Mortality rate, 96 hr post LPS (LPS-induced sepsis; [4]): 69.23% | Mortality rate, 120 hr post LPS (LPS-induced sepsis; [4]): 69.23% | Mortality rate, 144 hr post LPS (end of observation) (LPS-induced sepsis; [4]): 69.23% | Survival rate, 0 hr (LPS-induced sepsis; [4]): 100.0% | Survival rate, 24 hr post LPS (LPS-induced sepsis; [4]): 84.6% | Survival rate, 48 hr post LPS (LPS-induced sepsis; [4]): 46.2% | Survival rate, 60 hr post LPS (LPS-induced sepsis; [4]): 38.5% | Survival rate, 96 hr post LPS (LPS-induced sepsis; [4]): 30.8% | Survival rate, 120 hr post LPS (LPS-induced sepsis; [4]): 30.8% | Survival rate, 144 hr post LPS (end of observation) (LPS-induced sepsis; [4]): 30.8% | Survival rate, 36 hr post LPS (LPS-induced sepsis; [5]): 53.9% and 53.8% | Survival rate, 72 hr post LPS (LPS-induced sepsis; [5]): 38.5% | Number of deceased animals post LPS, 24 hours (LPS-induced sepsis; [6]): 2 | Number of deceased animals post LPS, 36 hours (LPS-induced sepsis; [6]): 4 | Number of deceased animals post LPS, 48 hours (LPS-induced sepsis; [6]): 1 | Number of deceased animals post LPS, 60 hours (LPS-induced sepsis; [6]): 1 | Number of deceased animals post LPS, 72 hours (LPS-induced sepsis; [6]): 0 | Number of deceased animals post LPS, 96 hours (LPS-induced sepsis; [6]): 1 | Number of deceased animals post LPS, 120 hours (LPS-induced sepsis; [6]): 0 | Number of deceased animals post LPS, 144 hours (LPS-induced sepsis; [6]): 0 | Survived (LPS-induced sepsis; through 144 hours post LPS, N=13): 4 | Reduction in serum TNF-α level vs vehicle control (TNF-α): 67.9% | Reduction in serum IL-1β level vs vehicle (IL-1β): 65.3% | Infiltration of PMN cell, score 0-4 [2]: 2.75 ± 0.78 | Overall Lung Damage Severity, score 0-4 [2]: 3.05 ± 0.42 | Pulmonary Edema, score 0-4 [2]: 2.35 ± 0.95
